“And” between values parts separate entries of the source, which are not always exact repeats. Identical values can stand only once.
Tested on: BRAPP
Test: Post-emergence foliar-applied weed control, greenhouse (Example I)
Assay type: in vivo
From the text: Evaluation of Post-emergence Foliar-Applied Herbicidal Mixtures for Weed Control in Direct Seeded Rice
Seeds or nutlets of the desired test plant species were planted in a soil matrix prepared by mixing a loam or sandy loam soil (e.g., 28.6 percent silt, 18.8 percent clay, and 52.6 percent sand, with a pH of about 5.8 and an organic matter content of about 1.8 percent) and calcareous grit in an 80 to 20 ratio. The soil matrix was contained in plastic pots with a volume of 1 quart and a surface area of 83.6 square centimeters (cm^2). When required to ensure good germination and healthy plants, a fungicide treatment and/or other chemical or physical treatment was applied. The plants were grown for 8-22 days in a greenhouse with an approximate 14 h photoperiod which was maintained at about 29° C. during the day and 26° C. during the night. Nutrients (Peters Excel® 15-5-15 5-Ca 2-Mg and iron chelate) were applied in the irrigation solution as needed and water was added on a regular basis. Supplemental lighting was provided with overhead metal halide 1000-Watt lamps as necessary. The plants were employed for testing when they reached the first through fourth true leaf stage.
Treatments consisted of the acid or esters of 4-amino-3-chloro-5-fluoro-6-(4-chloro-2-fluoro-3-methoxy-phenyl)pyridine-2-carboxylic acid (Compound A), each formulated as an SC (suspension concentrate), and various herbicidal components alone and in combination. Forms of Compound A were applied on an acid equivalent basis.
Other herbicidal components were applied on an active ingredient basis and included 4-hydroxyphenyl pyruvate dioxygenase (HPPD)-inhibiting herbicides mesotrione formulated as Callisto®, sulcotrione formulated as Mikado®, pyrazolynate formulated as Sunbird® 10% GR, and benzobicyclon formulated as Benzobicyclon 3.5%.
Treatment requirements were calculated based upon the rates being tested, the concentration of active ingredient or acid equivalent in the formulation, and a 12 mL application volume at a rate of 187 L/ha.
For treatments comprised of formulated compounds, measured amounts of compounds were placed individually in 25 mL glass vials and diluted in a volume of 1.25% (v/v) Agri-Dex® crop oil concentrated to obtain 12× stock solutions. […] Application solutions were prepared by adding an appropriate amount of each stock solution (e.g., 1 mL) and diluted to the appropriate final concentrations with the addition of 10 mL of an aqueous mixture of 1.25% (v/v) crop oil concentrate so that the final spray solutions contained 1.25+/−0.05% (v/v) crop oil concentrate.
For treatments comprised of formulated and technical compounds, weighed amounts of the technical materials were placed individually in 25 mL glass vials and dissolved in a volume of 97:3 v/v acetone/DMSO to obtain 12× stock solutions, and measured amounts of the formulated compounds were placed individually in 25 mL glass vials and diluted in a volume of 1.5% (v/v) crop oil concentrate or water to obtain 12× stock solutions. […] Application solutions were prepared by adding an appropriate amount of each stock solution (e.g., 1 mL) and diluted to the appropriate final concentrations with the addition of an appropriate amount of an aqueous mixture of 1.5% (v/v) crop oil concentrate so that the final spray solutions contained 1.25% (v/v) crop oil concentrate. As required, additional water and/or 97:3 v/v acetone/DMSO was added to individual application solutions so that the final acetone and DMSO concentrations of the application solutions being compared were 8.1% and 0.25%, respectively.
All stock solutions and applications solutions were visually inspected for compound compatibility prior to application. Spray solutions were applied to the plant material with an overhead Mandel track sprayer equipped with a 8002E nozzles calibrated to deliver 187 L/ha over an application area of 0.503 m^2 at a spray height of 18 to 20 inches (46 to 50 cm) above average plant canopy height. […]

| SMILES | Visual Weed Control (%) - 20 DAA BRAPP Obs (8.75 gae/ha) | Visual Weed Control (%) - 20 DAA BRAPP Obs (17.5 gae/ha) | Visual Weed Control (%) - 20 DAA BRAPP Obs (4.38 gae/ha) |
| --- | --- | --- | --- |
| COc1c(Cl)ccc(-c2nc(C(=O)O)c(Cl)c(N)c2F)c1F [Compound A Acid, 4-amino-3-chloro-6-(4-chloro-2-fluoro-3-methoxyphenyl)-5-fluoropyridine-2-carboxylic acid] | 60% and 80% | 85% |  |
| COc1c(Cl)ccc(-c2nc(C(=O)OCc3ccccc3)c(Cl)c(N)c2F)c1F [Compound A Benzyl Ester, benzyl ester of 4-amino-3-chloro-5-fluoro-6-(4-chloro-2-fluoro-3-methoxy-phenyl)pyridine-2-carboxylic acid] | 70% |  | 50% |

From patent US8841233B2, “Herbicidal compositions comprising 4-amino-3-chloro-5-fluoro-6-(4-chloro-2-fluoro-3-methoxyphenyl) pyridine-2-carboxylic acid or a derivative thereof and 4-hydroxyphenyl-pyruvate dioxygenase (HPPD) inhibitors” (Dow Agrosciences LLC, priority 2012, dated 2014)
